The results in this text go back to US20020028472A1, “Methods for identifying inhibitors of the anaphase promoting complex” (priority 2000, published 2002).

The test concerns the target T1, APC11 fused to Maltose Binding Protein (MBP-APC11) (Homo sapiens, UniProt Q9NYG5).
T1 construct: obtained by inserting the APC11 coding region into the commercially available vector pMAL, New England Biolabs; made in house; host or cells: E. coli, grown with 1 mM ZnCl2; purified on amylose resin
The experiment in a line: FRET assay of APC11-mediated formation of multiubiquitin chains. The format is biochemical. The following applies: DTT titrated 0 to 30 mM; 60 min at 37° C.; E1 UBA1, E2 HIS-UBCH5b; FRET europium/allophycocyanin.

T1 sequence (Q9NYG5 whole entry, the tested form may be a part): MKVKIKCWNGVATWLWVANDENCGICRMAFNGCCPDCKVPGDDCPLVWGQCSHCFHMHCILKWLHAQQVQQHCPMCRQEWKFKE

As to `O[C@H](CS)[C@H](O)CS` (racemic) [DTT, dithiothreitol], the “inhibition of the APC11-mediated formation of multiubiquitin chains” value was “inhibition”.
